Measurements as given in the NIST ThermoML archive (doi:10.1016/j.fluid.2006.07.013).
Numbers after ± are expanded uncertainties.

Assay: xn = mol fraction of the nth substance listed

CC(C)COC(=O)CCCCC(=O)OCC(C)C [diisobutyl adipate] + O=C=O
Settings | mass density [kg/m3]
294.75 K, Liquid, Volume and mass of phase, x1 = 0.11 | 807 ± 24
295.25 K, Liquid, Volume and mass of phase, x1 = 0.039 | 795 ± 24
298.95 K, Liquid, Volume and mass of phase, x1 = 0.11 | 805 ± 24
302.75 K, Liquid, Volume and mass of phase, x1 = 0.096 | 814 ± 24
304.65 K, Liquid, Volume and mass of phase, x1 = 0.11 | 805 ± 24
305.35 K, Gas, volume and mass of phase, x1 = 0.011 | 702 ± 21
305.75 K, Liquid, Volume and mass of phase, x1 = 0.039 | 764 ± 23
308.85 K, Liquid, Volume and mass of phase, x1 = 0.11 | 791 ± 24
310.35 K, Liquid, Volume and mass of phase, x1 = 0.064 | 793 ± 24
311.05 K, Gas, volume and mass of phase, x1 = 0.011 | 667 ± 20
311.25 K, Liquid, Volume and mass of phase, x1 = 0.161 | 865 ± 26
311.95 K, Liquid, Volume and mass of phase, x1 = 0.592 | 813 ± 24
312.15 K, Liquid, Volume and mass of phase, x1 = 0.282 | 853 ± 26
314.45 K, Liquid, Volume and mass of phase, x1 = 0.11 | 789 ± 24
316.85 K, Liquid, Volume and mass of phase, x1 = 0.039 | 739 ± 22
322.15 K, Liquid, Volume and mass of phase, x1 = 0.096 | 800 ± 24
322.55 K, Liquid, Volume and mass of phase, x1 = 0.11 | 791 ± 24
323.65 K, Liquid, Volume and mass of phase, x1 = 0.282 | 832 ± 25
329.95 K, Gas, volume and mass of phase, x1 = 0.011 | 639 ± 19
330.75 K, Liquid, Volume and mass of phase, x1 = 0.11 | 766 ± 23
332.65 K, Liquid, Volume and mass of phase, x1 = 0.039 | 732 ± 22
332.75 K, Liquid, Volume and mass of phase, x1 = 0.592 | 829 ± 25
337.45 K, Liquid, Volume and mass of phase, x1 = 0.282 | 821 ± 25
342.05 K, Liquid, Volume and mass of phase, x1 = 0.11 | 756 ± 23
343.35 K, Liquid, Volume and mass of phase, x1 = 0.064 | 762 ± 23
345.25 K, Liquid, Volume and mass of phase, x1 = 0.039 | 702 ± 21
347.35 K, Liquid, Volume and mass of phase, x1 = 0.096 | 768 ± 23
350.15 K, Liquid, Volume and mass of phase, x1 = 0.282 | 810 ± 24
351.35 K, Liquid, Volume and mass of phase, x1 = 0.592 | 819 ± 25
353.25 K, Liquid, Volume and mass of phase, x1 = 0.161 | 791 ± 24
356.25 K, Liquid, Volume and mass of phase, x1 = 0.11 | 740 ± 22
357.45 K, Gas, volume and mass of phase, x1 = 0.011 | 558 ± 17
357.75 K, Liquid, Volume and mass of phase, x1 = 0.039 | 675 ± 20
360.85 K, Liquid, Volume and mass of phase, x1 = 0.064 | 724 ± 22
363.05 K, Liquid, Volume and mass of phase, x1 = 0.282 | 800 ± 24
366.65 K, Liquid, Volume and mass of phase, x1 = 0.039 | 660 ± 20
369.85 K, Liquid, Volume and mass of phase, x1 = 0.096 | 731 ± 22
370.95 K, Liquid, Volume and mass of phase, x1 = 0.592 | 807 ± 24
371.25 K, Liquid, Volume and mass of phase, x1 = 0.11 | 723 ± 22
371.55 K, Liquid, Volume and mass of phase, x1 = 0.282 | 791 ± 24
376.85 K, Gas, volume and mass of phase, x1 = 0.039 | 638 ± 19
378.45 K, Gas, volume and mass of phase, x1 = 0.011 | 518 ± 16
380.95 K, Liquid, Volume and mass of phase, x1 = 0.161 | 760 ± 23
381.65 K, Liquid, Volume and mass of phase, x1 = 0.064 | 687 ± 21
383.95 K, Liquid, Volume and mass of phase, x1 = 0.282 | 776 ± 23
391.15 K, Liquid, Volume and mass of phase, x1 = 0.592 | 790 ± 24
392.25 K, Liquid, Volume and mass of phase, x1 = 0.096 | 696 ± 21
400.05 K, Gas, volume and mass of phase, x1 = 0.064 | 655 ± 20
400.55 K, Liquid, Volume and mass of phase, x1 = 0.282 | 760 ± 23
401.45 K, Gas, volume and mass of phase, x1 = 0.039 | 588 ± 18
401.65 K, Liquid, Volume and mass of phase, x1 = 0.11 | 681 ± 21
404.55 K, Gas, volume and mass of phase, x1 = 0.011 | 471 ± 14
408.05 K, Liquid, Volume and mass of phase, x1 = 0.161 | 721 ± 22
409.85 K, Liquid, Volume and mass of phase, x1 = 0.592 | 777 ± 23
419.65 K, Liquid, Volume and mass of phase, x1 = 0.282 | 740 ± 22
420.05 K, Liquid, Volume and mass of phase, x1 = 0.096 | 651 ± 20
421.25 K, Gas, volume and mass of phase, x1 = 0.064 | 617 ± 19
421.85 K, Liquid, Volume and mass of phase, x1 = 0.161 | 706 ± 21
423.15 K, Liquid, Volume and mass of phase, x1 = 0.592 | 772 ± 23
423.65 K, Liquid, Volume and mass of phase, x1 = 0.11 | 650 ± 20
424.65 K, Gas, volume and mass of phase, x1 = 0.039 | 541 ± 16
